The results in this text go back to ChEMBL document CHEMBL5523764, “Discovery of NO Donor-Aurovertin Hybrids as Dual Ferroptosis and Apoptosis Inducers for Treating Triple Negative Breast Cancer” (J Med Chem, 2024).

pIC50: −log10 of the molar value. Calls of active or inactive are those of the source. The calls are words filed in the database; no cut-off is given here.

The test system of data set [1] is MDA-MB-231. In words: Antiproliferative activity against human MDA-MB-231 cells assessed as reduction in cell viability incubated for 72 hrs by MTT assay. The data set is classed as functional, cell-based. To be noted: MDA-MB-231, 72 h. (In general: Tetrazolium dyes change colour on reduction, which living cells bring about.)
The subject of data set [2] is 4T1. Description: Antiproliferative activity against mouse 4T1 cells assessed as reduction in cell viability incubated for 72 hrs by MTT assay. To be noted: 4T1, 72 h. The data set is classed as functional, cell-based.
A short description of data set [3]: Cytotoxicity against human MCF-10A cells assessed as reduction in cell viability incubated for 72 hrs by MTT assay. Type of data set: toxicity, cell-based.
A short description of data set [4]: Selectivity index, ratio of IC50 for cytotoxicity against human MCF-10A cells to IC50 for antiproliferative activity against human MDA-MB-231 cells. Type of data set: toxicity, cell-based. To be noted: MCF-10A cells versus MDA-MB-231 cells, read-out: Ratio IC50.
In data set [5] the test system is MDA-MB-231. Description: Induction of NO release in human MDA-MB-231 cells assessed NO concentration by Griess reagent based assay. Type of data set: functional. On the technique in general: Griess reagent forms a coloured azo dye with nitrite.
Data set [6] can be described thus: Toxicity in ip dosed mouse assessed as body weight loss. The data set is classed as organism-based. The following applies: in vivo.
Data set [7] is described as follows: Toxicity in ip dosed mouse assessed as appearance of messy furs. The data set is classed as organism-based. To be noted: in vivo.
The nature of data set [8]: Toxicity in ip dosed mouse assessed as appearance of loose gray stool. Type of data set: organism-based. The following applies: in vivo.
Data set [9] can be described thus: Toxicity in mouse assessed as animal death at >6 mg/kg, ip. To be noted: in vivo. The data set is classed as organism-based.
A short description of data set [10]: Toxicity in ip dosed mouse assessed as lethal dose. Type of data set: organism-based. To be noted: in vivo.
Data set [11] deals with MDA-MB-231. In words: Antitumor activity against human MDA-MB-231 cells xenografted in nude mouse assessed as reduction in tumor size at 5 mg/kg, ip administered for 30 days. The data set is classed as functional, organism-based. The following applies: time 30.0 day. On the technique in general: Xenograft models place foreign cells or tissue in a host animal.
The subject of data set [12] is MDA-MB-231. In words: Antitumor activity against human MDA-MB-231 cells xenografted in nude mouse assessed as reduction in tumor weight at 5 mg/kg, ip administered for 30 days. Type of data set: functional, organism-based. The following applies: time 30.0 day.
Data set [13] deals with MDA-MB-231. Description: Induction of ferroptosis in human MDA-MB-231 cells xenografted in nude mouse assessed as reduction in GPX4 level at 5 mg/kg, ip administered for 30 days by immunohistochemistry analysis. The data set is classed as functional, organism-based. To be noted: time 30.0 day.

The term pIC50 denotes the IC50 on a negative log10 scale, so that one unit is a factor of ten. The IC50 is the midpoint of a concentration-inhibition curve. `CC[C@H]1O[C@@]2(C)[C@H](OC(C)=O)[C@@]1(C)O[C@@H](/C=C/C=C/C=C/c1oc(=O)cc(OC)c1C)[C@@H]2OC(=O)CCCC(=O)OCc1c(-c2ccc(Br)cc2)no[n+]1[O-]`: the pIC50 is 5.32 in data set [1] and 5.34 in data set [2]. For the same compound, in data set [3], the IC50 at 72 h is greater than 50 µM. In addition, the selectivity ratio in [4] is greater than 10. Also, in [5], the Activity amounted to 2.65 µM.

Consider `CC[C@H]1O[C@@]2(C)[C@H](OC(C)=O)[C@@]1(C)O[C@@H](/C=C/C=C/C=C/c1oc(=O)cc(OC)c1C)[C@H]2OC(=O)CCC(=O)OCCCCOc1no[n+]([O-])c1S(=O)(=O)c1ccccc1`, for which the values for the pIC50 in data set [1] and in data set [2] were 6.38 and 6.26, respectively. In addition, in data set [3], the IC50 at 72 h was greater than 50 µM. Besides, the selectivity ratio in data set [4] was greater than 119. Also, the Activity in [5] was 5.23 µM.

For `O=S(=O)(c1ccccc1)c1no[n+]([O-])c1S(=O)(=O)c1ccccc1`, the figures for the pIC50 in data set [1] and in data set [2] were 5.96 and 5.67, respectively. Besides, the IC50 at 72 h in [3] was determined as 3.8 µM. For the same compound, in data set [4], the selectivity ratio came out at 3.1. Further, the Activity in data set [5] amounted to 8.06 µM.

Regarding `CC[C@H]1O[C@@]2(C)[C@H](OC(C)=O)[C@@]1(C)O[C@@H](/C=C/C=C/C=C/c1oc(=O)cc(OC)c1C)[C@H]2OC(=O)CCC(=O)OCCCCCOc1no[n+]([O-])c1S(=O)(=O)c1ccccc1`, the pIC50 in data set [1] was 6.22; in data set [2] it was 5.95. Besides, the IC50 at 72 h in [3] was greater than 50 µM. In addition, the selectivity ratio in data set [4] was greater than 83. In addition, the Activity in data set [5] came out at 4.6 µM.

As to `CC[C@H]1O[C@@]2(C)[C@H](OC(C)=O)[C@@]1(C)O[C@@H](/C=C/C=C/C=C/c1oc(=O)cc(OC)c1C)[C@H]2OC(=O)CCC(=O)OCCCCCCOc1no[n+]([O-])c1S(=O)(=O)c1ccccc1`, the values for the pIC50 in data set [1] and in [2] were 6.35 and 6.14, respectively. The IC50 at 72 h in [3] was greater than 50 µM. Also, the selectivity ratio in data set [4] was greater than 111. For the same compound, the Activity in data set [5] was 4.92 µM.

As a reminder, the LD50 is the dose at which mortality reaches 50%. `CC[C@H]1O[C@@]2(C)[C@H](OC(C)=O)[C@@]1(C)O[C@@H](/C=C/C=C/C=C/c1oc(=O)cc(OC)c1C)[C@@H]2O`: the values for the pIC50 in [1] and in [2] were 5.66 and 5.48, respectively. In addition, the IC50 at 72 h in data set [3] was greater than 50 µM. Also, in data set [4], the selectivity ratio is greater than 23. Moreover, the Activity result in [6], in data set [7], in data set [8] and in [9] was “Toxic” in each case. Besides, the 50% lethal dose (LD50) in [10] was determined as 12 mg/kg.

As for `CC[C@H]1O[C@@]2(C)[C@H](OC(C)=O)[C@@]1(C)O[C@@H](/C=C/C=C/C=C/c1oc(=O)cc(OC)c1C)[C@@H]2OC(=O)CCCC(=O)OCc1c(-c2ccc(Cl)cc2)no[n+]1[O-]`, the pIC50 in [1] is 5.34; in data set [2], 5.10. The IC50 at 72 h in data set [3] is greater than 50 µM. In addition, the selectivity ratio in [4] is greater than 10. Besides, the Activity in data set [5] was 2.42 µM.

For `CC[C@H]1O[C@@]2(C)[C@H](OC(C)=O)[C@@]1(C)O[C@@H](/C=C/C=C/C=C/c1oc(=O)cc(OC)c1C)[C@@H]2OC(=O)CCCC(=O)OCc1c(-c2ccc(F)cc2)no[n+]1[O-]`, the pIC50 was 5.14 in data set [1] and less than 5.00 in data set [2]. The half-maximal inhibitory concentration (IC50) at 72 h in data set [3] is greater than 50 µM. Moreover, the selectivity ratio in [4] is greater than 7. This compound returned an Activity in data set [5] of 2.27 µM.

`COc1cccc2c1C(=O)c1c(O)c3c(c(O)c1C2=O)C[C@@](O)(C(=O)CO)C[C@@H]3O[C@H]1C[C@H](N)[C@@H](O)[C@H](C)O1`: the outcome in [11] and in data set [12] was Active. Further, in [13], the result was inactive.
